Data reported in patent publication US9044464B2, “No-releasing guanidine-coxib anti-cancer agents” (Euclises Pharmaceuticals, Inc., priority 2012, dated 2015).

System: PGE2 levels
Assay: Rat Air-Pouch Model for Acute Inflammation (carrageenan challenge, exudate volume and PGE2 by ELISA)
Format: in vivo, Sprague-Dawley rats
Conditions: for Volume (mL), collected exudate volume, mean / PGE2 (pg/mL) in exudate, mean: 0.01 mmol/kg oral gavage 2 h before intra-pouch 1% carrageenan, exudate collected 4 h after carrageenan; for Volume (mL), collected exudate volume, mean: 5 rats/group, vehicle mean 5.7; for PGE2 (pg/mL) in exudate, mean: ELISA, vehicle mean 4357.7; for reduction in exudate PGE2 release / reduction in collected exudate volume: 0.01 mmol/kg oral pretreatment, versus vehicle; for reduction in collected exudate volume: significant
Method: A study of celecoxib release from Example Compound 5 is assessed by measurement of PGE2 levels, which are indicative of inflammatory response.
Animals: Sprague-Dawley rats (Charles River Laboratories, R #3234, PO #738990, male, 160-180 g) were received, individually examined, and housed in cages of five rats each. The rats were ear notched for identification purposes.
Compounds and dosing solutions: The vehicle was prepared by dissolving 40 g (2-hydroxypropyl)-β-cyclodextrin (HP-β-CD, Sigma, Cat. 332593, lot MKBJ5858V) in 160 mL sterile saline for injection, USP (Hospira, lot 26-801-FW) making a […] solution which was filter sterilized (0.2 μm, Nalgene, Cat. 151-4020, lot 1095610). A 1% carrageenan solution was prepared by dissolving […] (Fluka, Cat. 22049, lot 1318338) in hot 60 mL sterile saline for injection, USP. This solution was stored at 4-8° C. Test compounds were dissolved in DMSO (Fisher Scientific, Cat. D128-500, lot 874999) to make 75 mM stocks. 0.25 mL of compound DMSO stocks were mixed with 12.5 mL of HP-β-CD solution at 50° C. (maximum DMSO concentration was 2% of the final volume of vehicle). Final concentration of all test compounds was 1.5 mM and compounds were dosed within 2 hours of preparation at 0.01 mmol/kg ([…] of test compound per rat).
Day 0—Air pouch initiation: The rats were anesthetized in a biological cabinet, the nape of the neck was cleansed with 70% isopropanol (Butler Schein Animal Health, Cat. 002498, lot 29EMS07104547) followed by 1% povidone-iodine solution (Ricca Chemical Co., Cat. 3955-16, lot 2205469). Twenty mL of sterile (0.22 μm, Millipore, Cat. SLGP033RS, lot R2KA55925, exp 08/2015) air was injected subcutaneously (SC) using a 23G×1½ inch needle fixed to a 20 mL syringe. The rats were returned to routine housing. No adverse reactions were observed.
Day 3—Air pouch maintenance: The rats were anesthetized in a biological cabinet, the nape of the neck was cleansed with 70% isopropanol followed by 1% povidone-iodine solution. Ten mL of sterile air was injected SC using a 23G×1½ inch needle fixed to a 20 mL syringe. The rats were returned to routine housing in clean cages. No adverse reactions were observed.
Day 6—Compound administration and carrageenan insult: At commencement of the study, each rat was weighed and sorted into treatment groups of 5 rats/group based upon average weight. Each rat was dosed orally via gavage at 6.809 mL/kg (1.6 mL/235 g) with their respective test material/vehicle. Two hours after test material/vehicle administration, the rats were injected with 1.0 mL of the room temperature 1% carrageenan saline solution into the air pouch. Four hours after carrageenan injection, the rats were anesthetized and 5 mL of the exudate buffer was injected into the air pouch. The pouch was gently massaged, the exudate immediately removed, and exudate volume recorded. The exudate was collected in a serum separator tube on an ice bath. The exudates were centrifuged (refrigerated) and an aliquot of the supernatant was stored in a labeled Eppendorf tube at −80° C.
Termination of Study: Animals were euthanized via CO2 asphyxiation at the completion of the in-life portion of this study and carcasses were disposed of according to standard protocols.
Data analysis: The exudate samples were thawed to room temperature and assayed by ELISA for PGE2 (R&D Systems, Cat. KGE004B, lot 307711). Statistical significance of treatments on mean exudate volumes are determined by comparison of means for treatment groups with vehicle group. Mean cytokine concentrations and standard deviations are determined for each group. Statistical significance of treatments on cytokine concentrations are determined for each compound group compared to vehicle group. Statistical significance (p-value) was calculated vs control groups by Student's t-Test.

Row | Structure (SMILES) | Volume (mL), collected exudate volume, mean [mL] | PGE2 (pg/mL) in exudate, mean [pg/mL] | reduction in exudate PGE2 release [%] | reduction in collected exudate volume [%]
1 | Cc1ccc(-c2cc(C(F)(F)F)nn2-c2ccc(S(=O)(=O)NC(=O)[C@@H](N)CCCNC(=N)N)cc2)cc1 [Example 5, (S)-2-Amino-5-guanidino-N-((4-(5-(p-tolyl)-3-(trifluoromethyl)-1H-pyrazol-1-yl)phenyl)sulfonyl)pentanamide] | 4.3 | 896.0 | 80 | 24
2 | Cc1ccc(-c2cc(C(F)(F)F)nn2-c2ccc(S(N)(=O)=O)cc2)cc1 [celecoxib, 4-[5-(4-Methylphenyl)-3-(trifluoromethyl)-1H-pyrazol-1-yl]benzenesulfonamide] | 4.6 | 907.1 | 80 | 19
